One data set relates to Influenza A virus. The data set is described as follows: Antiviral activity against influenza virus A/Puerto Rico/8/34 H1N1 in MDCK cells assessed as reduction in virus-induced cytopathic effect after 3 days by neutral red uptake assay. It counts as functional, organism-based. The settings on record: A/Puerto Rico/8/1934(H1N1), 72 h. On the technique in general: Cytopathic effects are the visible damage that an infection or toxin causes in cultured cells.

The test system of a further data set is P388. Nature of the data set: Cytotoxicity against mouse P388 cells by microculture tetrazolium assay. Type of data set: functional, cell-based.
A short description of data set [1]: Therapeutic index, ratio of cytotoxicity against MDCK cells to IC50 for influenza virus A/Puerto Rico/8/34 H1N1. It counts as cell-based. The settings on record: dog, read-out: TI.

In brackets after ≈: the same amount, converted by molar mass.

For orientation: IC50 means the concentration needed to halve the response being measured.

Consider `COc1ccc(OC(C)=O)c2c1C[C@]1(C)[C@@H](C)CC[C@H]3C(C)(C)CCC[C@]31O2`, for which the IC50 in the data set on Influenza A virus was determined as 5 µg/mL (≈ 12.9 µM); with P388 it was 23.8 µg/mL (≈ 61.6 µM). Besides, the selectivity ratio in data set [1] was determined as 100.

`COc1ccc(O)c2c1C[C@]1(C)[C@@H](C)CC[C@H]3C(C)(C)CCC[C@]31O2` [STRONGYLIN A]: the IC50 was found to be 6.5 µg/mL (≈ 18.9 µM) with Influenza A virus and 13 µg/mL (≈ 37.7 µM) with P388. The selectivity ratio in data set [1] was determined as 9.

The values are drawn from ChEMBL document CHEMBL1158975, “An antiviral sesquiterpene hydroquinone from the marine sponge Strongylophora hartmani” (J Nat Prod, 1991).
